Data reported in US7795456B2, “Insecticidal N-substituted sulfoximines” (Dow AgroSciences LLC, priority 2004, dated 2010).

How the values were obtained:
[1] = system: Colorado potato beetle (Leptinotarsa decemlineata); assay: Insecticidal test for Colorado potato beetle, foliar spray on tomato; type: in vivo; conditions: for % Control at ppm, against Colorado potato beetle: 3.13: 3.13 ppm; for % Control at ppm, against Colorado potato beetle: 12.5: 12.5 ppm; for CPB 50: % control at 50 ppm against Colorado potato beetle in foliar spray tests: 5 days, Corrected % Control; for CPB 50: % control at 50 ppm against Colorado potato beetle in foliar spray tests / % Control at ppm, against Colorado potato beetle: 50: 50 ppm
Experimental: Insecticidal Test for Colorado Potato Beetle (Leptinotarsa decemlineata).
Tomato seedlings at the growth stage of three or four expanding leaves were used. […] Treated plants were held in the laboratory for approximately 3 h to allow drying before the upper portion (with two or three leaves) of a plant was cut and placed in a 10×2.5-cm petri dish containing approximately 10 mL of solidified 1% agar at the bottom. Five 2nd or 3rd instar larvae were placed on the treated plant tissue, and the petri dishes were covered and held in an incubator at 25° C. At 5 days following treatment, insecticidal activity was evaluated by counting the number of live larvae in each dish.

[2] = system: beet armyworm (Spodoptera exigua); assay: Insecticidal test for beet armyworm in injection assays; conditions: 1 h, read-out: BAW SYM: % showing intoxicated symptoms at 10 μg/larva against beet armyworm in injection tests
[3] = system: corn earworm (Helicoverpa zea); conditions: 50 μg/cm2, second-instar larvae, 5 days
[4] = system: cotton aphid (Aphis gossypii); assay: Insecticidal test for cotton aphid, foliar spray on squash; conditions: for pest or weed control at 50 ppm / pest or weed control at 200 ppm: Aphis gossypii, foliar, 72 h; for pest or weed control at 50 ppm: read-out: CA 50: % control at 50 ppm against cotton aphid in foliar spray tests; for pest or weed control at 200 ppm: read-out: CA 200: % control at 200 ppm against cotton aphid in foliar spray tests; for % Control at ppm, against cotton aphid: 0.012: 0.012 ppm; for % Control at ppm, against cotton aphid: 0.049: 0.049 ppm; for % Control at ppm, against cotton aphid: 0.195: 0.195 ppm; for % Control at ppm, against cotton aphid: 0.78: 0.78 ppm; for % Control at ppm, against cotton aphid: 3.12: 3.12 ppm
[5] = system: fruit fly (Drosophila melanogaster); conditions: for FF SYM: % showing intoxicated symptoms at 25 μg/cm2 against fruit fly in dietary tests: 25 μg/cm2, 4 h; for FF 25: % mortality at 25 μg/cm2 against fruit fly in dietary tests: 25 μg/cm2, 48 h
[6] = system: yellow fever mosquito (Aedes aegypti) larvae; assay: whole plant or invertebrate; type: in vivo; conditions: 72 h, read-out: YFM 26: % control at 26 ppm against yellow fever mosquito in submerge tests
[7] = system: sweet potato whitefly (Bemisia tabaci); assay: Insecticidal test for sweet potato whitefly, foliar spray on cotton; conditions: for % Control at ppm, against sweet potato whitefly: 0.4-0.78: 0.4-0.78 ppm; for % Control at ppm, against sweet potato whitefly: 0.4-0.78 / % Control at ppm, against sweet potato whitefly: 2-3.13 / % Control at ppm, against sweet potato whitefly: 10-12.5 / % Control at ppm, against sweet potato whitefly: 50: rundown assay; for % Control at ppm, against sweet potato whitefly: 2-3.13: 2-3.13 ppm; for % Control at ppm, against sweet potato whitefly: 10-12.5: 10-12.5 ppm; for % Control at ppm, against sweet potato whitefly: 50: 50 ppm; for pest or weed control at 200 ppm: Bemisia tabaci, in Gossypium hirsutum, foliar, read-out: SPW 200: % control at 200 ppm against sweet potato whitefly in foliar spray tests
[8] = system: beet armyworm (Spodoptera exigua); conditions: 50 μg/cm2, second-instar larvae, 5 days
[9] = system: green peach aphid (Myzus persicae); assay: Insecticidal test for green peach aphid, foliar spray on cabbage seedlings; conditions: rundown assay, 3 days; for % Control at ppm, against green peach aphid: 0.012: 0.012 ppm; for % Control at ppm, against green peach aphid: 0.049: 0.049 ppm; for % Control at ppm, against green peach aphid: 0.195: 0.195 ppm; for % Control at ppm, against green peach aphid: 0.78: 0.78 ppm; for % Control at ppm, against green peach aphid: 3.12: 3.12 ppm

| SMILES | % Control at ppm, against Colorado potato beetle: 12.5 ([1]; rundown assay) | CPB 50: % control at 50 ppm against Colorado potato beetle in foliar spray tests [1] | % Control at ppm, against Colorado potato beetle: 50 ([1]; rundown assay) | pest or weed control at 0.01 mg [2] [%] | CEW 50: % mortality at 50 μg/cm2 against corn earworm in dietary tests [3] | pest or weed control at 50 ppm [4] [%] | pest or weed control at 200 ppm [4] [%] | FF SYM: % showing intoxicated symptoms at 25 μg/cm2 against fruit fly in dietary tests [5] | FF 25: % mortality at 25 μg/cm2 against fruit fly in dietary tests [5] | pest or weed control at 26 ppm [6] [%] | % Control at ppm, against sweet potato whitefly: 0.4-0.78 [7] | % Control at ppm, against sweet potato whitefly: 2-3.13 [7] | % Control at ppm, against sweet potato whitefly: 10-12.5 [7] | % Control at ppm, against sweet potato whitefly: 50 [7] | pest or weed control at 200 ppm [7] [%] | BAW 50: % mortality at 50 μg/cm2 against beet armyworm in dietary tests [8] | % Control at ppm, against cotton aphid: 0.049 ([4]; rundown assay) | % Control at ppm, against cotton aphid: 0.195 ([4]; rundown assay) | % Control at ppm, against cotton aphid: 0.78 ([4]; rundown assay) | % Control at ppm, against cotton aphid: 3.12 ([4]; rundown assay) | also measured |
| --- | --- | --- | --- | --- | --- | --- | --- | --- | --- | --- | --- | --- | --- | --- | --- | --- | --- | --- | --- | --- | --- |
| CC(c1ccc(Cl)nc1)S(C)(=O)=NC#N (stereo not shown) [Compound 8, [1-(6-chloropyridin-3-yl)ethyl](methyl)oxido-λ^4-sulfanylidenecyanamide] | A (90-100) | A (90-100) | A (90-100) | 50 to 59 | G (Inactive) | 90 to 100 | 90 to 100 | A (90-100) | A (90-100) | 90 to 100 | A (90-100) | A (90-100) | A (90-100) | A (90-100) | 90 to 100 | G (Inactive) | – | – | – | – | % Control at ppm, against Colorado potato beetle: 3.13 ([1]; rundown assay): D (60-69) |
| CS(=O)(Cc1ccc(Cl)nc1)=NC#N (stereo not shown) [Compound 10, [(6-Chloropyridin-3-yl)methyl](methyl)oxido-λ^4-sulfanylidene-cyanamide] | E (50-59) | B (80-89) | B (80-89) | < 50 | G (Inactive) | 90 to 100 | 90 to 100 | A (90-100) | A (90-100) | 90 to 100 | F (Less than 50) | D (60-69) | A (90-100) | A (90-100) | 90 to 100 | G (Inactive) | – | – | – | – | – |
| CCC(c1ccc(Cl)nc1)S(C)(=O)=NC#N (stereo not shown) [Compound 26] | – | – | – | < 50 | G (Inactive) | 90 to 100 | 90 to 100 | A (90-100) | A (90-100) | 90 to 100 | – | – | – | – | – | G (Inactive) | – | – | – | – | – |
| C[C@H](c1ccc(Cl)nc1)[S@](C)(=O)=NC#N [Compound 28] | – | – | – | 60 to 69 | G (Inactive) | 90 to 100 | 90 to 100 | A (90-100) | A (90-100) | 90 to 100 | A (90-100) | A (90-100) | A (90-100) | A (90-100) | 90 to 100 | G (Inactive) | A (90-100) | A (90-100) | A (90-100) | A (90-100) | % Control at ppm, against cotton aphid: 0.012 ([4]; rundown assay): A (90-100); % Control at ppm, against green peach aphid: 0.012 [9]: F (Less than 50); % Control at ppm, against green peach aphid: 0.049 [9]: F (Less than 50); % Control at ppm, against green peach aphid: 0.195 [9]: B (80-89); % Control at ppm, against green peach aphid: 0.78 [9]: A (90-100); % Control at ppm, against green peach aphid: 3.12 [9]: A (90-100) |
| CC(c1ccc(Cl)nc1)[S@](C)(=O)=NC#N (stereo partly shown) [Compound 29] | – | – | – | 90 to 100 | G (Inactive) | 90 to 100 | 90 to 100 | A (90-100) | A (90-100) | 90 to 100 | A (90-100) | A (90-100) | A (90-100) | A (90-100) | 90 to 100 | G (Inactive) | A (90-100) | A (90-100) | A (90-100) | A (90-100) | % Control at ppm, against cotton aphid: 0.012 ([4]; rundown assay): A (90-100); % Control at ppm, against green peach aphid: 0.012 [9]: F (Less than 50); % Control at ppm, against green peach aphid: 0.049 [9]: D (60-69); % Control at ppm, against green peach aphid: 0.195 [9]: A (90-100); % Control at ppm, against green peach aphid: 0.78 [9]: A (90-100); % Control at ppm, against green peach aphid: 3.12 [9]: A (90-100) |
| O=[N+]([O-])N=S1(=O)CCCC1Cc1ccc(Cl)nc1 (stereo not shown) [Compound 35] | – | B (80-89) | – | < 50 | G (Inactive) | 90 to 100 | 90 to 100 | D (60-69) | F (Less than 50) | 80 to 89 | – | – | – | – | 90 to 100 | G (Inactive) | – | – | – | – | – |
| O=[N+]([O-])N=[S@@]1(=O)CCCC1Cc1ccc(Cl)nc1 (stereo partly shown) [Compound 41] | D (60-69) | A (90-100) | A (90-100) | – | G (Inactive) | 90 to 100 | 90 to 100 | – | F (Less than 50) | 90 to 100 | – | – | – | – | 90 to 100 | G (Inactive) | C (70-79) | A (90-100) | A (90-100) | A (90-100) | % Control at ppm, against Colorado potato beetle: 0.78 ([1]; 0.78 ppm, rundown assay): F (Less than 50); % Control at ppm, against Colorado potato beetle: 3.13 ([1]; rundown assay): F (Less than 50); % Control at ppm, against cotton aphid: 12.5 ([4]; 12.5 ppm, rundown assay): A (90-100); % Control at ppm, against cotton aphid: 50 ([4]; 50 ppm, rundown assay): A (90-100); % Control at ppm, against green peach aphid: 0.049 [9]: F (Less than 50); % Control at ppm, against green peach aphid: 0.195 [9]: F (Less than 50); % Control at ppm, against green peach aphid: 0.78 [9]: E (50-59); % Control at ppm, against green peach aphid: 3.12 [9]: D (60-69); % Control at ppm, against green peach aphid: 12.5 ([9]; 12.5 ppm): A (90-100); % Control at ppm, against green peach aphid: 50 ([9]; 50 ppm): A (90-100) |
